In patent publication US12653860B2, “Compositions and methods for editing beta-globin for treatment of hemaglobinopathies” (Vertex Pharmaceuticals Incorporated, priority 2019, dated 2026):

Experiments:
[1] = tested on: HBB gene in CD34-expressing LT-HSPCs derived from human patients with sickle cell disease; assay: INDELs at R02 cut site in SCD patient-derived LT-HSPCs, NGS; assay type: cell-based; details: FIG. 30B
Method: Editing of cells was performed following two days of in vitro culture. Briefly, 5×10^5 cells were electroporated with RNP containing 20 g SpCas9 and 20 μg R02 sgRNA, AAV.323 at a dose of 10,000 MOI, and 1 g mRNA encoding i53. The cells were incubated with AAV.323 for 1 hour prior to electroporation. The cells were edited by electroporation with R02+AAV.323+i53 mRNA and compared to control cells edited with R02 only, R02+AAV.323, or cells exposed to electroporation without RNP or AAV editing components (mock EP).
The efficiency of gene correction by HDR repair at the HBB gene locus was evaluated by NGS assay as described in Example 3. Frequency of INDELs at the R02 cut site was evaluated by NGS analysis. […] Additionally, HDR repair and INDEL formation were compared at day 0 and day 14 post-editing.

[2] = tested on: HBB gene locus in CD34-expressing LT-HSPCs; assay: INDEL frequency and species at R02 cut site with DNA-PK inhibitors, NGS; assay type: cell-based, human; details: 1 μg i53 mRNA; R02 RNP+AAV.307
Method: Editing was performed as described above. However, the cells were electroporated with AAV.307 administered 1 hour prior to electroporation at a dose of 10,000 MOI. The cells were electroporated with compound 296 at a concentration ranging from 0.005 μM to 10 μM, with compound 984 at a concentration ranging from 0.005 μM to […], or with 1 μg i53 mRNA. Negative control cells were electroporated with RNP+AAV only or RNP only.
Edited cells were evaluated for viability as described above, and for incorporation of gene-edits at 2 days post-electroporation. […] The frequency of INDELs induced at the R02 cut site was also evaluated by NGS analysis.
The INDELs species identified for cells edited in Experiment 2 were further evaluated to determine frequency of repair by NHEJ or MMEJ repair pathways. An INDEL of 1 nt was considered due to NHEJ repair; a deletion of −9 nt was considered due to MMEJ repair based on the microhomology present on either side of the R02 cut site. Based on percentage of total reads corresponding to these INDEL species, the ratio of gene edits due to NHEJ and MMEJ repair was evaluated.

[3] = tested on: AAVS1 locus in hTERT RPE-1 cells; assay: HDR insertion of AAV GFP donor at AAVS1 locus in hTERT RPE-1 cells; assay type: cell-based, human; details: mRNA encoding i53; AAV 25,000 MOI; FIG. 7
Method: RPE1 cells were lipofected with RNP comprised of Cas9 protein and gRNA targeting the AAVS1 locus (target sequence shown in SEQ ID NO: 3; spacer sequence shown in SEQ ID NO: 4). Cells were edited with 1 g Cas9 and 1 g gRNA. Cells were infected with AAV containing homology donor DNA encoding GFP (DJ serotype) as well as mRNA encoding i53 (mRNA ORF shown in SEQ ID NO: 69). […] HDR efficiency was determined by measuring the level of GFP fluorescence in the cells following gene-editing.

[4] = tested on: PBMCs from a human donor with sickle cell disease; assay: Hemoglobin expression by HPLC in edited patient-derived PBMCs; assay type: cell-based; details: compared to mock EP control cells, FIG. 34
Method: (§1) It was further evaluated if editing of patient-derived PBMCs in the presence of i53 would yield high levels of correction of the HBB gene. […] The PBMCs were expanded in StemSpan SFEM II (1×)+StemSpan CC100 (1×)+Dexamethasone […]+hEPO 2IU/mL at 37° C. under normoxic conditions (20% O2 concentration). The cells were edited following five days of in vitro culture. […] On day 8, the cells were transferred to Phase 1 media, and differentiation to erythrocytes was performed through day 18 as described above. Efficiency of HDR at the HBB gene locus was evaluated on day 12 using the NGS assay described in Example 4. Also evaluated was the frequency of INDELs at the R02 cut-site as measured by NGS.
Hemoglobin expression was measured by HPLC analysis for edited PBMCs as described above.

[5] = tested on: HBB locus in CD34-expressing LT-HSPCs; assay: Indel formation at HBB locus in vitro by TIDE analysis; assay type: cell-based, human; details: FIG. 11
Method: The cells were electroporated with 1 g mRNA encoding i53.
Editing efficiency at the HBB locus was evaluated by measuring indel formation by TIDE analysis. […] This group had 1.7-fold reduction in INDEL frequency relative to cells treated with RNP+AAV,

[6] = tested on: HBB gene in PBMCs from a human donor with sickle cell disease; assay: HDR correction and INDELs in patient-derived PBMCs, NGS; assay type: cell-based
Method: as §1

HBB locus = assay: Indel formation in mouse bone marrow 16 weeks post engraftment, TIDE; assay type: in vivo, mice
Method: (§2) NHEJ editing of the HBB locus was also evaluated in mouse bone marrow collected at 16 weeks post engraftment. Indel formation at the site of Cas9/gRNA cutting was evaluated by TIDE analysis in bone marrow samples and compared to indel formation of LT-HSPCs prior to administration.
as §2, with “administration. Regardless of the method used to edit the LT-HSPCs, indel formation was similar at 16 weeks post-engraftment to the level present prior to administration (FIG. 27).” for “administration.”

[7] = tested on: CFTR gene locus in HEK293 T cells; assay: TIDE analysis of DSB repair at CFTR gene locus; assay type: cell-based
Method: The effect of Nu7441 treatment on HDR was also evaluated at the CFTR gene locus in HEK293 T cells. To do so cells were electroporated with RNP comprising Cas9 and a gRNA targeting the CFTR gene locus (SEQ ID NO: 18; sgRNA target sequence identified by SEQ ID NO: 19). 2×10^5 cells were edited with 1 μM Cas9 and 1.5 μM gRNA. The cells were transfected with a ssODN donor (SEQ ID NO: 42). Cells were edited with 100 μM ssODN. The ssODN contains homology arms spanning both sides of the DSB induced by the Cas9-guide and is designed to include 3 additional base pairs (GCA) into the CFTR gene to aid detection of HDR. Cells were also treated with 5 μM Nu7441. Gene correction was assessed by TIDE analysis. TIDE analysis uses a pair of PCR reactions and standard capillary sequencing runs to identify mutations induced at the site of a DSB (see e.g., Brinkman (2014) Nucleic Acids Res 42:e168). The type of mutation induced at the DSB was indicative of the pathway used to repair the DSB. Formation of an indel comprising either an insertion or a deletion of bases was considered due to NHEJ repair; a deletion of 2-3 base pairs was considered due to MMEJ repair; while an insertion of 3 base pairs was considered due to HDR repair. Shown in FIGS. 4A-4B are mutations introduced at the DSB for cells treated with Nu7441 (FIG. 4B) compared to a DMSO negative control (FIG. 4A). […] This reduction in NHEJ repair in the presence of Nu7441 was evaluated with an additional ssODN donor (SEQ ID NO: 41).

[8] = Nu7441, either ssODN donor (SEQ ID NO: 41 or 42), FIG. 5

Row | Molecule | frequency of INDELs at the R02 cut site, fold lower than RNP+AAV.323 alone [1] | frequency of INDELs relative to control cells [2] | HDR efficiency over AAV alone [3] | expression of HbA [4] | expression of HbS [4] | level of indel formation [5] | frequency of INDELs ([6]; compared to control cells, FIG. 33B) | frequency of correction of the HBB gene by HDR repair ([6]; day 12, FIG. 33A) | level of indel formation in bone marrow (HBB locus; AAV.304, FIG. 27) | level of indel formation in bone marrow (HBB locus; AAV.307, FIG. 20) | HDR repair (+3 base pair insertion) ([7]; 5 μM Nu7441, ssODN SEQ ID NO: 42, FIGS. 4A-4B) | indel formation (+1, 0, or −1 base pair) ([7]; 5 μM Nu7441, ssODN SEQ ID NO: 42, vs DMSO negative control, FIGS. 4A-4B) | HDR repair [7, 8] | indel formation due to NHEJ repair [7, 8]
1 | i53: polypeptide inhibitor of 53BP1 (SEQ ID NO: 70), delivered as mRNA (ORF SEQ ID NO: 69) | 1.9 fold | reduced frequency of INDELs | increase in HDR efficiency | increased expression of HbA | significant reduction in expression of HbS | lowest level of indel formation | reduced | approximately 60% | lowest | lowest | – | – | – | –
2 | O=c1cc(N2CCOCC2)oc2c(-c3cccc4c3sc3ccccc34)cccc12 [Nu7441] | – | – | – | – | – | – | – | – | – | – | much higher levels of HDR repair | dramatically reduced | increase in HDR repair | decreased levels of indel formation
